Laboratory results taken from US7579012B2, “Targeting of triacylglycerol synthase gene for tuberculosis treatment” (University of Central Florida Research Foundation, Inc., priority 2005, dated 2009).

Biological target: T1, TGS1 (Mycobacterium tuberculosis, UniProt P9WKC9)
T1 construct: made in house; host or cells: E. coli (total cell lysate, not purified)
T1 sequence (P9WKC9 1-463): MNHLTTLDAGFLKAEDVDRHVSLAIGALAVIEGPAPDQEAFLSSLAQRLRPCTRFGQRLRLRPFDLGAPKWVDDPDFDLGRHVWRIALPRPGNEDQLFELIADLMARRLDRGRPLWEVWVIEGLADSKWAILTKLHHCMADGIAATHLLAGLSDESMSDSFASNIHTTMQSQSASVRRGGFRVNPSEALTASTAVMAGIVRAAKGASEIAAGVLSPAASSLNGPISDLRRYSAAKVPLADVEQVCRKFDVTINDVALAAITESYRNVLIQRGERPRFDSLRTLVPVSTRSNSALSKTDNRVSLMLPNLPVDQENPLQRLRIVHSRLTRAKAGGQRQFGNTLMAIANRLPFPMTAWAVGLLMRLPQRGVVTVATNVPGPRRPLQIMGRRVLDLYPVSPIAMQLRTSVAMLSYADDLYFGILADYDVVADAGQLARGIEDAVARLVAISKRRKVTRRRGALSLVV
Format: biochemical, M. tuberculosis
Conditions: acyl-CoA substrate, pH 6.5, 37° C., 2 h; for Km: from linear double-reciprocal plots

CCCCCCCC/C=C\CCCCCCCC(=O)SCCNC(=O)CCNC(=O)[C@H](O)C(C)(C)COP(=O)(O)OP(=O)(O)OC[C@H]1O[C@@H](n2cnc3c(N)ncnc32)[C@H](O)[C@@H]1OP(=O)(O)O [C18:1-CoA, oleoyl (C18:1)-CoA]
Vmax: 1.1 nmol/mg/min | Km: 540 µM

CCCCCCCCCCCCCCCCCCCCCCCCCC(=O)SCCNC(=O)CCNC(=O)[C@H](O)C(C)(C)COP(=O)(O)OP(=O)(O)OC[C@H]1O[C@@H](n2cnc3c(N)ncnc32)[C@H](O)[C@@H]1OP(=O)(O)O [C26:0-CoA, hexacosanoyl (C26:0)-CoA]
Vmax: 2.4 nmol/mg/min | Km: 306 µM
